Literature values as cited in US20210361561A1, “A pouch product suitable for application in an oral cavity” (priority 2019, published 2021).

How the values were obtained:
CB1 receptors = CB1 receptors (Homo sapiens, UniProt P21554)
CB2 receptors = CB2 receptors (Homo sapiens, UniProt P34972); details: compared with CB1 receptors
CB2 receptors, sequence (P34972 whole entry): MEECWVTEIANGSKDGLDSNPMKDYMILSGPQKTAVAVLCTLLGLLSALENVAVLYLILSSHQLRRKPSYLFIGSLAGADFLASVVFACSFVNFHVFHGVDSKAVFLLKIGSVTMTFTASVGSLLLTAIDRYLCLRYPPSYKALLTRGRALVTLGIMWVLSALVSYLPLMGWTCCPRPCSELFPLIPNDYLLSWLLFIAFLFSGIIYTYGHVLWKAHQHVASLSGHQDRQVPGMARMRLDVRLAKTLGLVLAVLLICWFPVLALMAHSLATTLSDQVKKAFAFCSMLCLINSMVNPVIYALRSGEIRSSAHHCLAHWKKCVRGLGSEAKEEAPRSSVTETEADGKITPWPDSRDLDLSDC

CB1 receptors, sequence (P21554 whole entry): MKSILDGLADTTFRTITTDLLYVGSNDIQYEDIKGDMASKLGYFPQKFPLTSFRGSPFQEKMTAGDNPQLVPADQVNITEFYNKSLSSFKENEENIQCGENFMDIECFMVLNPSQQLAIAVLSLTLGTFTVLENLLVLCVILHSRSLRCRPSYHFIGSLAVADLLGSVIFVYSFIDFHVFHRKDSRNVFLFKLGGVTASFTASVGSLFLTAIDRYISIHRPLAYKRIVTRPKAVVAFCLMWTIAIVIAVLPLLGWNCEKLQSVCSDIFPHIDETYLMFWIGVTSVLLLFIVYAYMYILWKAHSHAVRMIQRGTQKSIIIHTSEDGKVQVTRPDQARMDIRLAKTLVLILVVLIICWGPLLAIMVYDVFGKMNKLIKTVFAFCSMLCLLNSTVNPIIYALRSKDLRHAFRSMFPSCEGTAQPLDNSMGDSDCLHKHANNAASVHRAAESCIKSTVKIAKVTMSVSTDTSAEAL

CCCCCc1cc(O)c2c(c1)OC(C)(C)c1ccc(C)cc1-2 [CBN, 6,6,9-Trimethyl-3-pentyl-benzo[c]chromen-1-ol]
activity at the CB1 receptors (CB1 receptors): partial agonist | affinities relative to THC (CB1 receptors; CB1 and CB2 receptors): lower affinities relative to THC | affinity to CB2 receptors (CB2 receptors): higher affinity
